Assay results as given in publication PMC8070004, “Isorhamnetin Ameliorates Dry Eye Disease via CFTR Activation in Mice” (International Journal of Molecular Sciences, 2021).

Legend:
human CFTR = biological target: T1, human CFTR (Homo sapiens, UniProt P13569); assay: YFP quenching assay in CHO-K1 cells expressing CFTR and halide sensor YFP; assay type: cell-based; conditions: isorhamnetin applied 10 min prior to I- addition
T1 construct: expressed in transfected cells; host or cells: CHO-K1
Method: CHO cells expressing wild-type CFTR with the halide sensor YFP-H148Q/I152L were plated in 96-well, black-walled microplates (Corning Inc., Corning, NY, USA) at a density of 2 × 10^4 cells per well. CHO-WT-CFTR-YFP cells were incubated for 48 h at 37 °C. Assays were done using FLUO star Omega microplate reader (BMG Labtech, Ortenberg, Germany) and MARS Data Analysis Software (BMG Labtech). Briefly, each well of a 96-well plate was washed three times in PBS (200 µL/wash). Then, 100 µL PBS was added to each well. Test compounds (1 µL) were added to each well at final concentration of 25 µM. After 10 min, 96-well plates were transferred to the microplate reader preheated to 37 °C for fluorescence assay. Each well was assayed individually for CFTR-mediated I^- influx by recording fluorescence continuously (400 ms per point) for 2 s (baseline). Then, 100 µL of 140 mM I^- solution were added at 2 s and then YFP fluorescence was recorded for 14 s. Initial iodide influx rate was determined from the initial slope of fluorescence decrease, by nonlinear regression, following infusion of iodide.

[1] = tested on: corneal epithelial (CorE) cells; assay: MTS cell viability assay in CorE cells; assay type: cell-based, human; conditions: 48 h; isorhamnetin 30 μM, Triton X-100 0.01%
Method: Immortalized human CorE [47] and immortalized human ConjE (Innoprot, Bizkaia, Spain) cells were plated on 96-well microplates. After 24 h incubation, cells were treated with 30 μM isorhamnetin or 0.01% Triton X-100 and then they were incubated for two days. An equal amount of DMSO was added to the control. The culture medium and the compounds were changed every 12 h. To assess cell proliferation, after 48 h of incubation with the compound, the cells were reincubated with MTS for 1 h. The soluble formazan produced by cellular reduction of MTS was quantified by measuring the absorbance at 490 nm with Infinite M200 (Tecan, Grödig, Austria) microplate reader. MTS assay was done using CellTiter 96 AQueous One Solution Cell Proliferation Assay kit (Promega, Madison, WI, USA).

CFTR = biological target: T2, CFTR (Mus musculus, UniProt P26361); assay: Open-circuit ocular surface potential difference (PD) in CD-1 mice; assay type: in vivo; conditions: 30 μM isorhamnetin, amiloride and low Cl- perfusion
T2 construct: from tissue; host or cells: ocular surface of anesthetized CD-1 mice (in vivo)

CD-1 mice = assay: Tear volume by phenol red thread tear test in normal CD-1 mice; assay type: in vivo, mouse; conditions: single 2.5 μL ocular delivery, 30 µM isorhamnetin
Method: Tear volume was measured using phenol red threads (Zone-Quick, Oasis Medical, Glendora, CA, USA) by placing them in the lateral canthi of normal CD-1 or dry eye model-treated BL6 mice for 10 s using forceps. Tear volume was measured using a Vernier caliper as the length of thread wetting under a microscope. For normal CD-1 mice, serial measurements were done to evaluate compound pharmacodynamics compared to the vehicle after topical application of a single, 2.5-μL drop of compound formulations containing 20 μM forskolin, 30 μM isorhamnetin, or 20 μM CFTRinh-172 in PBS with 0.1% DMSO.

WT-CFTR = WT-CFTR (Homo sapiens, UniProt P13569); assay: Apical membrane current in WT-CFTR expressing FRT cells; assay type: cell-based; design: expressed in transfected cells; host or cells: FRT (Fisher rat thyroid) cells, provided by Dr. Alan Verkman
Method: Snapwell inserts containing CFTR-expressing FRT and T84 cells were mounted in Ussing chambers (Physiologic Instruments, San Diego, CA, USA). Forskolin, isorhamnetin, and CFTRinh-172 were added to the apical and basolateral bath solution. For FRT cells, the apical bath was filled with a half-Cl^− solution and the basolateral bath was filled with HCO^3--buffered solution to generate transepithelial Cl^− gradient (apical, 64 mM; basolateral, 129 mM), and the basolateral membrane was permeabilized with 250 µg/mL amphotericin B. For T84 cells, symmetrical HCO^3--buffered solutions were used, and ENaC was inhibited with amiloride (100 µM). All cells were bathed for a 20-min stabilization period and aerated with 95% O2/5% CO2 at 37 °C. Apical membrane current and short-circuit current were measured with an EVC4000 Multi-Channel V/I Clamp (World Precision Instruments, Sarasota, FL, USA) and recorded using PowerLab 4/35 (AD Instruments, Castle Hill, Australia). Data were collected and analyzed with ADInstruments acquisition software Labchart Pro 7 software. The sampling rate was 4 Hz.

WT-CFTR, sequence (P13569 whole entry): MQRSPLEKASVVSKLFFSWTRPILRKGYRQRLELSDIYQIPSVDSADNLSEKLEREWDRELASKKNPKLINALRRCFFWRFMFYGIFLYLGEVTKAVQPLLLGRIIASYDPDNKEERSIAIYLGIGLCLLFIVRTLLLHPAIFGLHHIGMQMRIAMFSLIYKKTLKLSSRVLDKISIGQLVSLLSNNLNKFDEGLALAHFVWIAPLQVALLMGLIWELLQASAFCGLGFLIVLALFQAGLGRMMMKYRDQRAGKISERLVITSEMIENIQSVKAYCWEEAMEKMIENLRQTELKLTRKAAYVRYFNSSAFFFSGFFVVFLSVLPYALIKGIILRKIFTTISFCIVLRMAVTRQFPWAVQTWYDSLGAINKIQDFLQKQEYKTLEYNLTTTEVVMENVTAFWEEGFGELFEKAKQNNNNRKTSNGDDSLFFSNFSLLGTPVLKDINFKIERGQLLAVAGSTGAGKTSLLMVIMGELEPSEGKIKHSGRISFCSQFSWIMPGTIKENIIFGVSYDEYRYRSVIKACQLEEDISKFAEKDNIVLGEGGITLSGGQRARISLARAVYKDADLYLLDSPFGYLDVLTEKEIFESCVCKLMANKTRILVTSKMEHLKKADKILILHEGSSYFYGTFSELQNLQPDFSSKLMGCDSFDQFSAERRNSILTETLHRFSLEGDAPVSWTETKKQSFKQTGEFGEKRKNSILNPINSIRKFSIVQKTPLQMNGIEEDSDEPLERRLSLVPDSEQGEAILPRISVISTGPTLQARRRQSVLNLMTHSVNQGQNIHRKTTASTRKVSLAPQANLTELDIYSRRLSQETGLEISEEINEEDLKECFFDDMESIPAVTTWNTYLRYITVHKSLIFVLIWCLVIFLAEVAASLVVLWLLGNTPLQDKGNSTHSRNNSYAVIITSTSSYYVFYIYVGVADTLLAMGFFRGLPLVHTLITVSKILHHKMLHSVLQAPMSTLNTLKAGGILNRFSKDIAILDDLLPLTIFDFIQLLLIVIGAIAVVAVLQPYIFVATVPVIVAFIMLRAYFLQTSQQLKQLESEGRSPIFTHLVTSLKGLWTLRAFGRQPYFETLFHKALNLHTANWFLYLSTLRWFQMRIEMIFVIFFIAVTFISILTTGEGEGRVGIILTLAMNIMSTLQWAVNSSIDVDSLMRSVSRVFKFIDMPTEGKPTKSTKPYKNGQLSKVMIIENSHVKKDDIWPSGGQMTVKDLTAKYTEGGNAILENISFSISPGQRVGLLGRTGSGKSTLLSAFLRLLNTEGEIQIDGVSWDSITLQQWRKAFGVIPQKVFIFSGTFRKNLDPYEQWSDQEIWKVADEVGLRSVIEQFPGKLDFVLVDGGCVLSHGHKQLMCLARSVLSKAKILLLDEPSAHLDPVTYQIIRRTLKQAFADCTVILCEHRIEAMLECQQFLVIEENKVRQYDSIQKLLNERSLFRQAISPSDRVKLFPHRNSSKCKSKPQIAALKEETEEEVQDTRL
T2 sequence (P26361 whole entry, the tested form may be a part): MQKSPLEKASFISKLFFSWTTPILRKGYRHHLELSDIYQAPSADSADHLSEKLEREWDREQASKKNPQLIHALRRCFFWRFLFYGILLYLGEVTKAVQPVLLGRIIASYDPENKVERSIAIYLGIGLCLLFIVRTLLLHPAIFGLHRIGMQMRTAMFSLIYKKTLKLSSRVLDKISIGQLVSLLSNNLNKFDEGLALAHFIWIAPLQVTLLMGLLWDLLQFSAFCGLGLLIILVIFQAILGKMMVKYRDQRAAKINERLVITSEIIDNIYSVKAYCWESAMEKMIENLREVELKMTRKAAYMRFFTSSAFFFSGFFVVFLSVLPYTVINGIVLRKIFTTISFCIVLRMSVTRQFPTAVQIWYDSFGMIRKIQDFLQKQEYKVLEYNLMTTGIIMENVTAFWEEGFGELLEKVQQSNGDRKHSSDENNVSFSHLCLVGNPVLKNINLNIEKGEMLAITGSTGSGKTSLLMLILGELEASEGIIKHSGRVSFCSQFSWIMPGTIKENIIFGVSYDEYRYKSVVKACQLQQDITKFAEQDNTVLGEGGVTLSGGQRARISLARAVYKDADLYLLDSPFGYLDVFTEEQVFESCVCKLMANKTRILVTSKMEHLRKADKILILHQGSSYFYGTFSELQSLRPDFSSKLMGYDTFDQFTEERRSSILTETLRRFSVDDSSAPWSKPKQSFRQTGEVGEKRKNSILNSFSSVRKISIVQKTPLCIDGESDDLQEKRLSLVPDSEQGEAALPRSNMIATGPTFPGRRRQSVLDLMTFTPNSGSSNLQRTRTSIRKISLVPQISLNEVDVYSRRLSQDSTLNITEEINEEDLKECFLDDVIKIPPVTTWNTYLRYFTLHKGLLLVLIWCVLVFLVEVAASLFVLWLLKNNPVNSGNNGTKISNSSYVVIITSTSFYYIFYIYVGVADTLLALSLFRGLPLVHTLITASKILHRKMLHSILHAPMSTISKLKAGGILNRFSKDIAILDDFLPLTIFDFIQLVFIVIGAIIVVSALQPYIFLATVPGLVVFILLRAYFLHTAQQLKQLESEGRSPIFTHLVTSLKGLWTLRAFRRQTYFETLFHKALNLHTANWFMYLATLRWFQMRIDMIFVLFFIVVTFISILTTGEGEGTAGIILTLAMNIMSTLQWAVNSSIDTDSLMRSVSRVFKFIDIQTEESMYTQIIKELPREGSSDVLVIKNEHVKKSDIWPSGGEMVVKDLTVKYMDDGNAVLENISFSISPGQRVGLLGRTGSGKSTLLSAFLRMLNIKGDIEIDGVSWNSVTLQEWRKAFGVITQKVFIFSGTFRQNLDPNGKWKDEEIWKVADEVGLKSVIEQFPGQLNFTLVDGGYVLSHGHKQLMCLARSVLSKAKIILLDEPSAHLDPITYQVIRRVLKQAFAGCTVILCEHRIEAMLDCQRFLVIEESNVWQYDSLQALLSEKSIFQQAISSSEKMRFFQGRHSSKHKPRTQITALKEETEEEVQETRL
T1 sequence (P13569 whole entry): as the sequence (P13569 whole entry) above

## COc1cc(-c2oc3cc(O)cc(O)c3c(=O)c2O)ccc1O [isorhamnetin]
Human CFTR
  CFTR chloride channel activity (YFP quenching): significantly increased
[1]
  cell viability (MTS), CorE cells: did not affect the cell viability
CFTR
  ocular surface PD: significantly hyperpolarized
CD-1 mice
  tear volume: significantly increased
WT-CFTR
  EC50: 6.6 ± 1.1 µM
WT-CFTR; 30 μM, current not further increased by 20 μM forskolin
  CFTR activation (apical membrane current): fully activated
